# Results taken from patent publication US10987318B2, “Application of clofoctol for manufacturing pharmaceutical product for treating human neuroglioma” (INSTITUTE OF BASIC MEDICAL SCIENCES, CHINESE ACADEMY OF …, priority 2016, dated 2021).
# Legend:
# [1] = test system: glioma stem cells (GSC2-GFP, U87MG SLC-GFP) co-cultured with normal human astrocytes (HA); assay: Flow cytometry of co-culture model (GSC2-GFP or U87MG SLC-GFP + HA-RFP); assay type: cell-based; conditions: 24 hours, 1-30 μM; compared with normal human astrocytes
# Protocol: 6-well and 96-well cell culture plates were pre-coated with 100 μg/mL poly-lysine at 37° C. overnight, followed by washing twice with saline and allowing to air-dry. GSC2-GFP cells stably expressing green fluorescence and HA cells stably expressing red fluorescence were digested into single cell, and resuspended in fresh culture medium, counted and diluted to 5×10^4 cells/mL. Then, the two types of cells were mixed well at a ratio of 1:1, divided into five tubes. Clofoctol were added in each tube and mixed well, so that the concentrations of clofoctol were 0 μM, 1 μM, 3 μM, 10 μM, 30 μM, respectively. The resulting mixtures were added to a 6-well cell culture plate (2 mL) and a 96-well cell culture plate (100 μL, 3 replicate wells per group) respectively for 24 hours, before the MTS assay was used to detect the cell activity of each treatment group in the 96-well cell culture plate. The cells in the 6-well cell culture plates were collected separately, washed twice with PBS, and resuspended with 100 μL respectively. The proportion of GSC2-GFP and HA-RFP in the viable cells of each treatment group was analyzed by flow cytometry. Considering the changes in cell activity after medicament treatment of the co-culture model, the relative cell viability of each cell component in the co-culture model was statistically analyzed. […]
# [2] = test system: GSC2 subcutaneous tumors; assay: Subcutaneous GSC2 xenograft at armpits of nude mice; assay type: in vivo, Balb/C nude mice; conditions: 20 mg/kg, intraperitoneal injection, 11 days
# Protocol: Subcutaneous tumorigenesis at armpits of nude mice: after centrifugation and digestion, GSC2 single cell re-suspended in PBS was subcutaneously inoculated into the armpits of 15 Balb/C nude mice of 5 weeks old. The inoculation number of the cells was 10^5 cells/mouse. The tumor size of nude mice was recorded (tumor size in nude mice=length*width^2/2). When the subcutaneous tumors in nude mice reached about 100 mm^3, they were divided into DMSO group and clofoctol administration group. The dose administered was 20 mg/kg, the mice were administered by intraperitoneal injection for a period of 11 days. The changes in tumor size and the body weight in two groups of nude mice were recorded.
# [3] = test system: U87MG SLC-GFP xenograft; assay: Administration to zebrafish glioma xenograft model; assay type: in vivo; conditions: 10 μM in hatching solution, 48 hours
# Protocol: 3000 green-fluorescent-labeled U87MG SLC-GFP were injected into the yolk sac of the 48-hour zebrafish embryo. After 48 hours of natural growth, fluorescence microscopy was used to detect the tumorigenesis in zebrafish. And then clofoctol at a concentration of 10 μM was added to the zebrafish hatching solution. After 48 hours of medicament treatment, the green fluorescence intensity of zebrafish yolk sac was detected by fluorescence microscopy to determine the in vivo inhibitory effect of clofoctol on tumors in zebrafish xenograft models.
# [4] = test system: GSC2 tumorspheres; assay: Experiment of tumorsphere formation; assay type: cell-based, human
# Protocol: After coating the 96-well cell culture dish, 100 μL single cell suspension containing 5000 GSC2 was added to each well. After 4 days of natural growth, the original medium was removed, and 100 μL fresh culture containing various concentrations of clofoctol was added to each well. The medicament concentrations were 0.03 μM, 0.1 μM, 0.3 μM, 1 μM, 3 μM, 10 μM and 30 μM, respectively. After 48 hours of medicament treatment, the morphological changes of the tumorspheres in each treatment group were observed under the microscope, and the number of tumorspheres in each treatment group was also counted.
# [5] = test system: GSC2; assay: Annexin V/PI counterstaining for the detection of apoptosis; assay type: cell-based, human; conditions: GSC2, 1-30 μM, 12 hours or 24 hours
# Protocol: (1) GSC2 were treated with clofoctol at the concentrations of 1 μM, 3 μM, 10 μM, 30 μM for 12 hours or 24 hours;
# (2) the cells were collected and washed twice with PBS;
# (3) the cells were resuspended with 50 μL 1*binding buffer with the cell density of about 1*10^6 cells/mL;
# (4) 2.5 μL FITC Annexin V and 2.5 μL PI were added;
# (5) incubating for 15 min at room temperature in the darkness;
# (6) 200 μL of 1*binding buffer was added to the system, and the cells in each treatment tube was passed through the cell strainer;
# (7) flow cytometry analysis;
# The Annexin V/PI counterstaining kit used was purchased from BD pharmingen with the product lot number 556547.
# [6] = test system: glioma stem cells (GSC5; FIG. 6 legend: GSC2); assay: Recovery assay (MTS after removal of medicament); assay type: cell-based, human; conditions: 24 or 48 hours treatment, then 48 hours in fresh medium
# Protocol: (1) The 96-well cell culture plate was coated with 100 μg/mL poly-lysine.
# (2) GSC5 was digested into single cell using ACCUTASE enzyme, resuspended in fresh Neurobasal culture medium, and the cells were then plated on the pre-coated 96-well cell culture plates overnight;
# (3) clofoctol was added, the concentration of which were 0.03 μM, 0.1 μM, 0.3 μM, 1 μM, 3 μM, 10 μM and 30 μM, 9 replicate wells for each concentration;
# (4) after 24 hours of treatment, 20 μL MTS/PMS mixed reagent was added to 3 replicate wells of each concentration to measure the cell activity. The medicament-containing medium in the other 6 replicate wells was removed, fresh medium was added to 3 of the 6 replicate wells, and medium containing the same concentration of clofoctol was added to the rest 3 replicate wells;
# (5) after 48 hours of incubation, cell activity was detected by MTS assay.
# After 48 hours of medicament treatment, the cells were restored for 48 hours and then detected, the steps are as above.
# [7] = test system: GSC2; assay: In situ tumorigenesis in nude mice of pretreated GSC2; assay type: in vivo, Balb/C nude mice
# Protocol: The cells were collected after 24 hours of pre-treatment with clofoctol at a concentration of 30 μM, washed twice with PBS, and a portion of the cells were subjected to trypan blue staining and cell counting. The cells were injected in situ into the intracranial striatum of Balb/C nude mice aged 5-7 weeks, at 10^5 cells/mouse, 5 mice each group, and a DMSO control group was set.
# [8] = test system: GSC5; assay: Limited dilution experiment (self-renewal); assay type: cell-based, human; conditions: GSC5, 1 μM, 3 μM and 10 μM, 2 weeks
# Protocol: (1) The cells of GSC5 tumorspheres in suspension culture were collected into a 15 mL centrifuge tube, 0.5 mL of ACCUTASE enzyme (purchased from sigma) was added, and the cells were digested at 37° C. for 5 minutes. Then the cells were pipetted to single cell and the supernatant was removed after centrifugation;
# (2) Fresh Neurobasal culture medium (purchased from gibco) was added. A portion of the cells were taken for trypan blue staining, followed by cell counting.
# (3) After calculating the desired volume of cell culture medium, the cell concentration gradient of 200, 100, 50, 25 cells/well was set, and 10 replicate wells for each concentration were set. The DMSO control group and medicament treatment group with 0 μM, 1 μM, 3 μM and 10 μM of clofoctol were set.
# (4) The cells were seeded in a 96-well plate at 100 and cultured in an incubator at 37° C., 5% CO2, 2 weeks later the proportion of the well without tumorsphere was counted;
# [9] = test system: glioma stem cells (U87MG SLC, U251 SLC, GSC2, GSC5); assay: Detection of cell viability by MTS assay; assay type: cell-based, human
# Description: “MTS assay”: a colorimetric method for determining the number of viable cells in proliferation assays and cytotoxicity assays. MTS is a novel tetrazolium compound. PMS is an electron coupling reagent with enhanced chemical stability, which forms a stable solution when mixed with MTS. MTS can be reduced by cellular organisms to generate a colored formazan product that is soluble in culture media. This conversion is thought to be carried out by NAD(P)H-dependent dehydrogenase enzymes in metabolically active cells. The amount of the formazan product, which is quantified at 490 nm, is proportional to the number of viable cells in culture.
# “The relative cell viability”: after the detection of the value of absorbance by above MTS assay, the relative cell viability is calculated based on the value of absorbance (A). […]
# (2) In order to detect the effect of clofoctol on cell viability of glioma stem cells, the experiment was carried out using a 96-well cell culture plate which is coated with 100 μg/mL poly-lysine overnight, wherein the plate was washed twice next day with saline, and allowed to dry until use. The cells were digested, resuspended as a single cell suspension, counted and seeded on a 96-well cell culture plate (U87MG SLC (5000 cells/well), U251 SLC (10000 cells/well), GSC2 (10000 cells/well), GSC5 (10000 cells/well)), allowed to grow overnight. […]
smiles,measurement,setting,value
"CC(C)(C)CC(C)(C)c1ccc(O)c(Cc2ccc(Cl)cc2Cl)c1 [clofoctol, 2-[(2,4-dichlorophenyl)methyl]-4-(2,4,4-trimethylpentan-2-yl)phenol]",relative cell viability of each cell component in the co-culture model,[1],specifically inhibits the cell activity of glioma stem cells in the co-culture model
same,side effects (body weight),[2],side effects were small
same,tumor growth (tumor size),[2],significantly inhibits tumor growth
same,in vivo tumor growth (green fluorescence intensity of yolk sac),[3],significantly inhibits the in vivo tumor growth
same,morphology of tumorspheres at low concentrations,"[4]; GSC2, 0.03 μM, 0.1 μM, 48 hours",grow protuberances and exhibit clear differentiation-like characteristics
same,morphology of tumorspheres at high concentrations,"[4]; GSC2, 10 μM, 30 μM, 48 hours",caused the death of marginal cells of tumorspheres
same,size and number of tumorspheres,"[4]; GSC2, 48 hours, 0.03-30 μM",significantly reduce the size and number of tumorspheres
same,apoptosis in glioma stem cells,[5],can induce apoptosis in glioma stem cells
same,reversibility of the effect on glioma stem cells after removal of medicament,[6],irreversible to some extent
same,in situ tumorigenesis (mice with tumor / mice injected),"[7]; GSC2 pretreated 24 hours at 30 μM, 1 * 10^5 cells/mouse, intracranial striatum",0/5
same,ability of in situ tumorigenesis in nude mice,[7]; pretreatment of GSC2 at 30 μM for 24 hours,significantly inhibits its ability of in situ tumorigenesis in nude mice
same,formation of glioma stem cell clones (self-renewal ability),[8],significantly inhibits the formation of glioma stem cell clones
same,"cell activity of glioma stem cells (MTS, FIG. 1)","[9]; 48 hours, 0.3-30 μM, compared with glioma cells and normal human cell lines",specifically inhibits the cell activity of glioma stem cells
same,IC50,"[9]; Homo sapiens, four glioma stem cell strains (U87MG SLC, U251 SLC, GSC2, GSC5), after 48 hours treatment",7.65 to 10.5 µM
